Values of other authors as cited in PMC11345841, “Exploring 2-Sulfonylpyrimidine Warheads as Acrylamide Surrogates for Targeted Covalent Inhibition: A BTK Story” (Journal of Medicinal Chemistry, 2024).
Where two headings read alike, the source gives them in different places.

Test system: 468 human kinases
Conditions: cited from earlier work; for Percent of Control: ref Buhimschi/Crews

C=CC(=O)N1CCC[C@@H](n2nc(-c3ccc(Oc4ccccc4)cc3)c3c(N)ncnc32)C1 [Compound 1g, Ibrutinib, reference compound]
%Control (@1000nM, ZAP70, ref Buhimschi et al. 2018): 77% | Percent of Control (ABL1(F317I)-nonphosphorylated): 30% | Percent of Control (ABL1(F317I)-phosphorylated): 67% | Percent of Control (ABL1(F317L)-nonphosphorylated): 25% | Percent of Control (ABL1(F317L)-phosphorylated): 49% | Percent of Control (ABL1(H396P)-nonphosphorylated): 18% | Percent of Control (ABL1(Q252H)-nonphosphorylated): 6.4% | Percent of Control (ABL1(Q252H)-phosphorylated): 67% | Percent of Control (ABL1(Y253F)-phosphorylated): 49% | Percent of Control (ABL1-nonphosphorylated): 9% | Percent of Control (ABL2): 43% | Percent of Control (ASK2 (MAP3K6)): 54% | Percent of Control (BLK): 0.1% | Percent of Control (BMX): 38% | Percent of Control (BRAF(V600E)): 59% | Percent of Control (BRK (PTK6)): 1.4% | Percent of Control (BTK): 0% | Percent of Control (CDK2): 66% | Percent of Control (CSK): 2.4% | Percent of Control (CSNK1E): 44% | Percent of Control (CTK (MATK)): 66% | Percent of Control (EGFR(E746-A750del)): 5.1% | Percent of Control (EGFR(G719C)): 0.35% | Percent of Control (EGFR(G719S)): 0.45% | Percent of Control (EGFR(L747-E749del, A750P)): 0.3% | Percent of Control (EGFR(L747-S752del, P753S)): 12% | Percent of Control (EGFR(L747-T751del,Sins)): 1.4% | Percent of Control (EGFR(L858R)): 1.4% | Percent of Control (EGFR(L858R,T790M)): 6.9% | Percent of Control (EGFR(L861Q)): 0.1% | Percent of Control (EGFR(S752-I759del)): 0% | Percent of Control (EGFR(T790M)): 0.15% | Percent of Control (EGFR): 0% | Percent of Control (EPHB6): 8.6% | Percent of Control (ERBB2): 0% | Percent of Control (ERBB3): 0% | Percent of Control (ERBB4): 0% | Percent of Control (ERN1): 38% | Percent of Control (FGFR1): 42% | Percent of Control (FGFR2): 42% | Percent of Control (FGFR3(G697C)): 35% | Percent of Control (FGFR3): 45% | Percent of Control (FGR): 10% | Percent of Control (FLT3(D835H)): 18% | Percent of Control (FLT3(D835V)): 1.9% | Percent of Control (FLT3(D835Y)): 44% | Percent of Control (FLT3(ITD)): 55% | Percent of Control (FLT3(ITD,D835V)): 58% | Percent of Control (FLT3(K663Q)): 38% | Percent of Control (FLT3(N841I)): 31% | Percent of Control (FLT3(R834Q)): 54% | Percent of Control (FLT3): 26% | Percent of Control (FLT4): 38% | Percent of Control (FRK): 11% | Percent of Control (FYN): 5.3% | Percent of Control (HCK): 0.3% | Percent of Control (ITK): 6.8% | Percent of Control (KIT(A829P)): 21% | Percent of Control (KIT(L576P)): 42% | Percent of Control (KIT(V559D)): 31% | Percent of Control (KIT): 57% | Percent of Control (LATS2): 66% | Percent of Control (LCK): 0.2% | Percent of Control (LIMK1): 41% | Percent of Control (LOK (STK10)): 41% | Percent of Control (LZK (MAP3K13)): 58% | Percent of Control (MAP3K2): 54% | Percent of Control (MAP3K15): 53% | Percent of Control (MEK1 (MAP2K1)): 14% | Percent of Control (MEK2 (MAP2K2)): 21% | Percent of Control (MEK5 (MAP2K5)): 0.8% | Percent of Control (MET(M1250T)): 56% | Percent of Control (MKK7 (MAP2K7)): 0.7% | Percent of Control (MKNK2): 50% | Percent of Control (NDR2 (STK38L)): 48% | Percent of Control (PDGFRA): 48% | Percent of Control (PDGFRB): 35% | Percent of Control (RET(M918T)): 14% | Percent of Control (RET): 9.3% | Percent of Control (RIPK2): 3.7% | Percent of Control (RIPK5 (DSTYK)): 15% | Percent of Control (SNARK (NUAK2)): 68% | Percent of Control (SRC): 3.2% | Percent of Control (SRMS): 0% | Percent of Control (SRPK1): 54% | Percent of Control (STK35): 55% | Percent of Control (STK36): 60% | Percent of Control (TEC): 1.9% | Percent of Control (TIE2 (TEK)): 58% | Percent of Control (TNK1): 23% | Percent of Control (TNK2): 35% | Percent of Control (TNNI3K): 53% | Percent of Control (TRKA (NTRK1)): 67% | Percent of Control (TRPM6): 54% | Percent of Control (TTK): 40% | Percent of Control (TXK): 3.8% | Percent of Control (VEGFR2 (KDR)): 59% | Percent of Control (WNK2): 65% | Percent of Control (YANK2 (STK32B)): 49% | Percent of Control (YES (YES1)): 2.6% | Percent of Control (ZAK): 38%
